Results from ChEMBL document CHEMBL5678818, “Discovery of potent SOS1 inhibitors that block RAS activation via disruption of the RAS-SOS1 interaction” (Proc Natl Acad Sci U S A, 2019).

Key:
[1] = tested on: Tyrosine-protein kinase ABL1 (Homo sapiens), P00519 [F317L]; experiment: Inhibition of nonphosphorylated ABL1 F317L mutant (unknown origin) assessed as residual activity at 1000 nM by KINOMEscan analysis relative to control
[2] = target: Activin receptor type-1-like (Homo sapiens) (UniProt P37023); experiment: Inhibition of ACVRL1 (unknown origin) assessed as residual activity at 1000 nM by KINOMEscan analysis relative to control
Chain of Activin receptor type-1-like (Homo sapiens) (P37023 whole entry): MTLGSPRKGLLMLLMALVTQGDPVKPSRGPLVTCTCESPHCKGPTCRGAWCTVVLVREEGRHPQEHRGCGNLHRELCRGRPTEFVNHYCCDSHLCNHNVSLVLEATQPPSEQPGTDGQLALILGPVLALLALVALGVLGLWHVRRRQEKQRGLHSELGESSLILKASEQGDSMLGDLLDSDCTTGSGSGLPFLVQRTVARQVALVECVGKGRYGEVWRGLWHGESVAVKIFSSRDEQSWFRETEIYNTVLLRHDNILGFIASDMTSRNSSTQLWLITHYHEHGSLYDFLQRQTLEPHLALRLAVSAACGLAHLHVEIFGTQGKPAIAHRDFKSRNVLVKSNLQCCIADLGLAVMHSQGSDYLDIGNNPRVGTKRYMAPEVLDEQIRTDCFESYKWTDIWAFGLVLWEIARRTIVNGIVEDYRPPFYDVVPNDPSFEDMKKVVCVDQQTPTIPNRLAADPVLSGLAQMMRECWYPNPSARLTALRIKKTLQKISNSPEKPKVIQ

[3] = target: CDK4/Cyclin D3 (Homo sapiens) (UniProt P11802+P30281); experiment: Inhibition of CDK4-cyclin D3 (unknown origin) assessed as residual activity at 1000 nM by KINOMEscan analysis relative to control; format: protein-complex assay
[4] = target: Citron Rho-interacting kinase (Homo sapiens) (UniProt O14578); experiment: Inhibition of CIT (unknown origin) assessed as residual activity at 1000 nM by KINOMEscan analysis relative to control
Chain of Citron Rho-interacting kinase (Homo sapiens) (O14578 whole entry): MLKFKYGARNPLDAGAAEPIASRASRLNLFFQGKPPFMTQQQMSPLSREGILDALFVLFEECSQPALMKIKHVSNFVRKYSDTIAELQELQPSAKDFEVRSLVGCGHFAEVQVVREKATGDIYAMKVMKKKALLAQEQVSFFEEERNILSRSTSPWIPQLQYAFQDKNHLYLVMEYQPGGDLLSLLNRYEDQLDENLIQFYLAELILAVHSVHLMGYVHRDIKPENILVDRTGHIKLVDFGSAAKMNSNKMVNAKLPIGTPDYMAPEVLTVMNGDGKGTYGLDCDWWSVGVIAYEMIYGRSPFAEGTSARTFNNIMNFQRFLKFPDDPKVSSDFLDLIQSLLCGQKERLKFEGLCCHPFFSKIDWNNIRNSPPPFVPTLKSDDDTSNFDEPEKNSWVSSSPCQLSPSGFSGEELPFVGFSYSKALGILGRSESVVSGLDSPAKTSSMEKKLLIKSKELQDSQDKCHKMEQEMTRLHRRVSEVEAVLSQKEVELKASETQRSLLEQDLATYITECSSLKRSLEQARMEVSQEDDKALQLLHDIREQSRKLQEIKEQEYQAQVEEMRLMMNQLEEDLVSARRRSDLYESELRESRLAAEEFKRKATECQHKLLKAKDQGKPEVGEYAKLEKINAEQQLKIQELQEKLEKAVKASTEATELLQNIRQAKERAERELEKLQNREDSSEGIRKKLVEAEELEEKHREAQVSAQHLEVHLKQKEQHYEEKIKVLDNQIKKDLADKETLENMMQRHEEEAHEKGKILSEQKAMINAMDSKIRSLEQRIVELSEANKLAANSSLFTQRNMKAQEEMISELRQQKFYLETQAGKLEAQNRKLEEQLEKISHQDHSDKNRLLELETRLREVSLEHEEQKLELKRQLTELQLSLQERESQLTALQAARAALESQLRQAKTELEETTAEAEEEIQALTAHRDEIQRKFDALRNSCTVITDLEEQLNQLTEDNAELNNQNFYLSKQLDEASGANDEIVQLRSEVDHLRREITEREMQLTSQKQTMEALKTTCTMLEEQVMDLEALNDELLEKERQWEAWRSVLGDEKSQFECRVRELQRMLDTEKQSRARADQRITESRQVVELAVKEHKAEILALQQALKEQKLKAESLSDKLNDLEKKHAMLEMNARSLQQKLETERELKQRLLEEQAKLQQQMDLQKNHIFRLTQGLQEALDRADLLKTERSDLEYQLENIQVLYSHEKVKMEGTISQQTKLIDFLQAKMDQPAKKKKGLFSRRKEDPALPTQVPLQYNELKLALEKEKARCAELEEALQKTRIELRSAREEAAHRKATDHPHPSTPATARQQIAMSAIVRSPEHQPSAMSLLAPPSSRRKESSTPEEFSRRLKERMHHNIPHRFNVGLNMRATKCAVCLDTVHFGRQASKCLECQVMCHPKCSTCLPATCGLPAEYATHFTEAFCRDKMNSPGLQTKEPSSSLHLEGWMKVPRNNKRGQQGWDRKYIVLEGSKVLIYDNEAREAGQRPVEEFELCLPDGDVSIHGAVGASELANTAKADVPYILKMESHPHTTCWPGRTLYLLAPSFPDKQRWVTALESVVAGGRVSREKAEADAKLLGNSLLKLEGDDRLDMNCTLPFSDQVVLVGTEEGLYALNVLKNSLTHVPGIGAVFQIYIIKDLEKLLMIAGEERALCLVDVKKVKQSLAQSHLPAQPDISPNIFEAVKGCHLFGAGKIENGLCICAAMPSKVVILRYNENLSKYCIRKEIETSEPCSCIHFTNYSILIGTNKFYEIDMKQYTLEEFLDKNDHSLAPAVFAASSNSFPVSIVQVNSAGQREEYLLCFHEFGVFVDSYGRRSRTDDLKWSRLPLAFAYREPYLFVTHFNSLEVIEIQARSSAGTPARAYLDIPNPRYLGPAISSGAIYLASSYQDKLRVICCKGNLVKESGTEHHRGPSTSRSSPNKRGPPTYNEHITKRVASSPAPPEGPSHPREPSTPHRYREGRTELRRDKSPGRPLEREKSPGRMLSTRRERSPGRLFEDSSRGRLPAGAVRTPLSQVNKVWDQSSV

[5] = target: T1, Serine/threonine-protein kinase DCLK2 (Homo sapiens) (UniProt Q8N568); experiment: Inhibition of DCAMKL2 (unknown origin) assessed as residual activity at 1000 nM by KINOMEscan analysis relative to control
T1 sequence (whole entry): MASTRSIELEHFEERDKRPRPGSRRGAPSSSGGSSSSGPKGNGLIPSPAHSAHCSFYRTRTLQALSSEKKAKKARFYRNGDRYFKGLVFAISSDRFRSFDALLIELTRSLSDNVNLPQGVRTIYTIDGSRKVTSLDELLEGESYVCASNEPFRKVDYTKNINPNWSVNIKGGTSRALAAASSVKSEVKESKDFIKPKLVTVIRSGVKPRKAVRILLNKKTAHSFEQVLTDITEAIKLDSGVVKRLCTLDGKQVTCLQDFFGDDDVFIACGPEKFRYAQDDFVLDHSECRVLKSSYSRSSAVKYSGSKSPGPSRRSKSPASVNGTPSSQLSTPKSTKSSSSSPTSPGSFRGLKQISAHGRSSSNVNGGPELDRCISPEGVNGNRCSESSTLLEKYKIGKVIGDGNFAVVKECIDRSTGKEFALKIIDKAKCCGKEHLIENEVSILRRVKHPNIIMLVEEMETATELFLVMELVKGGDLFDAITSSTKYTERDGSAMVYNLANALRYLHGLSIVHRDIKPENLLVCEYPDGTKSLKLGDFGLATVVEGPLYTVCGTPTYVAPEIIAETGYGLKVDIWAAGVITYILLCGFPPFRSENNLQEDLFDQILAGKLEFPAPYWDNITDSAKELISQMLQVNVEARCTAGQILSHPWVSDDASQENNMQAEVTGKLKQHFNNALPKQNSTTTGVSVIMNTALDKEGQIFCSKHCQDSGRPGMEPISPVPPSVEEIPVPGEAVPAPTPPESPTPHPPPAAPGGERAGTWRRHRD

[6] = tested on: Epidermal growth factor receptor (Homo sapiens), P00533 [T790M]; experiment: Inhibition of EGFR T790M mutant (unknown origin) assessed as residual activity at 1000 nM by KINOMEscan analysis relative to control
[7] = target: Ephrin type-A receptor 5 (Homo sapiens) (UniProt P54756); experiment: Inhibition of EPHA5 (unknown origin) assessed as residual activity at 1000 nM by KINOMEscan analysis relative to control
Chain of Ephrin type-A receptor 5 (Homo sapiens) (P54756 whole entry): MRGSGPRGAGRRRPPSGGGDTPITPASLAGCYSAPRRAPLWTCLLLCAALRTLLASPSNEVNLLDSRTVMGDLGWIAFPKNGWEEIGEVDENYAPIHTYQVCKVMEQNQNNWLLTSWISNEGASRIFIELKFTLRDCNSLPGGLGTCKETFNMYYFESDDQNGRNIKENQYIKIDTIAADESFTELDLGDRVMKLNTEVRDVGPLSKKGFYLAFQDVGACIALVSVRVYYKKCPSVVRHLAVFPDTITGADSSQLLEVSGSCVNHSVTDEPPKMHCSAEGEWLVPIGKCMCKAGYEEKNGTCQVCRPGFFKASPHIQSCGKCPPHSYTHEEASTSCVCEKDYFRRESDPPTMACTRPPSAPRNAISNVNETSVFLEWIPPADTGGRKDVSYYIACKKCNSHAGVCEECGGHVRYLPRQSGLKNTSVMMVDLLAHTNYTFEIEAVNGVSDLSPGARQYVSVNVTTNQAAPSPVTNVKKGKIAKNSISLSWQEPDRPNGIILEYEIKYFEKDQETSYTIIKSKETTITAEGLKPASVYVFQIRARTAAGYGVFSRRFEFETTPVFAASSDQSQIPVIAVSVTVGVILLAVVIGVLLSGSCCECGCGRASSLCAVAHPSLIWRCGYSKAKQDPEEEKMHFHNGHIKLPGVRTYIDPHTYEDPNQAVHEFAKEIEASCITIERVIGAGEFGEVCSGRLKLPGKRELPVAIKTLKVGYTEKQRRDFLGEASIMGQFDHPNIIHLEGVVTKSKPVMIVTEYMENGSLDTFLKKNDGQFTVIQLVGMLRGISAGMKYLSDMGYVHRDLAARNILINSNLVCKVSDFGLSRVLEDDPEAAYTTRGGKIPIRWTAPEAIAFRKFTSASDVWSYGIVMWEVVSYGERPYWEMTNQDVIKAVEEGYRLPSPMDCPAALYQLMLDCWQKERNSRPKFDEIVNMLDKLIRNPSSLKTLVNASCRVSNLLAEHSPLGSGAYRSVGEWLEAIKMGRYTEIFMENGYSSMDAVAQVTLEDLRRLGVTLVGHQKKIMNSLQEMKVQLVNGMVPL

[8] = target: T2, Receptor-interacting serine/threonine-protein kinase 1 (Homo sapiens) (UniProt Q13546); experiment: Inhibition of RIPK1 (unknown origin) assessed as residual activity at 1000 nM by KINOMEscan analysis relative to control
T2 sequence (whole entry): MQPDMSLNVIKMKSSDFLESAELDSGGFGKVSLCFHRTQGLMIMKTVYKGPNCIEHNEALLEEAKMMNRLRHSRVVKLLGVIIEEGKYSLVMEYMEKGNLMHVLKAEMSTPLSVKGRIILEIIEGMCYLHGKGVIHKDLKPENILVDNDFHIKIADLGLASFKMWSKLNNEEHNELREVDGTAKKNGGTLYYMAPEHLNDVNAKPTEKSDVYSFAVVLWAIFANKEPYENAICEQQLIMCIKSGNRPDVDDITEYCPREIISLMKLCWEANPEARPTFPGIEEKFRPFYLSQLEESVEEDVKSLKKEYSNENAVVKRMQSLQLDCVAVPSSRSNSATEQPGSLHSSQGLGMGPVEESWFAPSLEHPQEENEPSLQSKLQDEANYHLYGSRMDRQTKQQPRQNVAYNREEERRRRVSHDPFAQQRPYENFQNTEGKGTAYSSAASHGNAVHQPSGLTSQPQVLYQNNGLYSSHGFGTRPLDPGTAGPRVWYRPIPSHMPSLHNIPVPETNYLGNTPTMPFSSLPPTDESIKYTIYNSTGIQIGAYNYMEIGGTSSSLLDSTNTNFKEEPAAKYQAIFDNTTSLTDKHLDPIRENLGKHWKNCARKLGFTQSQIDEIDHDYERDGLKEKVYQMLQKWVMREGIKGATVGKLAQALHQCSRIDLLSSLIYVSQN

[9] = target: Rho-associated protein kinase 2 (Homo sapiens) (UniProt O75116); experiment: Inhibition of ROCK2 (unknown origin) assessed as residual activity at 1000 nM by KINOMEscan analysis relative to control
Chain of Rho-associated protein kinase 2 (Homo sapiens) (O75116 whole entry, looked up): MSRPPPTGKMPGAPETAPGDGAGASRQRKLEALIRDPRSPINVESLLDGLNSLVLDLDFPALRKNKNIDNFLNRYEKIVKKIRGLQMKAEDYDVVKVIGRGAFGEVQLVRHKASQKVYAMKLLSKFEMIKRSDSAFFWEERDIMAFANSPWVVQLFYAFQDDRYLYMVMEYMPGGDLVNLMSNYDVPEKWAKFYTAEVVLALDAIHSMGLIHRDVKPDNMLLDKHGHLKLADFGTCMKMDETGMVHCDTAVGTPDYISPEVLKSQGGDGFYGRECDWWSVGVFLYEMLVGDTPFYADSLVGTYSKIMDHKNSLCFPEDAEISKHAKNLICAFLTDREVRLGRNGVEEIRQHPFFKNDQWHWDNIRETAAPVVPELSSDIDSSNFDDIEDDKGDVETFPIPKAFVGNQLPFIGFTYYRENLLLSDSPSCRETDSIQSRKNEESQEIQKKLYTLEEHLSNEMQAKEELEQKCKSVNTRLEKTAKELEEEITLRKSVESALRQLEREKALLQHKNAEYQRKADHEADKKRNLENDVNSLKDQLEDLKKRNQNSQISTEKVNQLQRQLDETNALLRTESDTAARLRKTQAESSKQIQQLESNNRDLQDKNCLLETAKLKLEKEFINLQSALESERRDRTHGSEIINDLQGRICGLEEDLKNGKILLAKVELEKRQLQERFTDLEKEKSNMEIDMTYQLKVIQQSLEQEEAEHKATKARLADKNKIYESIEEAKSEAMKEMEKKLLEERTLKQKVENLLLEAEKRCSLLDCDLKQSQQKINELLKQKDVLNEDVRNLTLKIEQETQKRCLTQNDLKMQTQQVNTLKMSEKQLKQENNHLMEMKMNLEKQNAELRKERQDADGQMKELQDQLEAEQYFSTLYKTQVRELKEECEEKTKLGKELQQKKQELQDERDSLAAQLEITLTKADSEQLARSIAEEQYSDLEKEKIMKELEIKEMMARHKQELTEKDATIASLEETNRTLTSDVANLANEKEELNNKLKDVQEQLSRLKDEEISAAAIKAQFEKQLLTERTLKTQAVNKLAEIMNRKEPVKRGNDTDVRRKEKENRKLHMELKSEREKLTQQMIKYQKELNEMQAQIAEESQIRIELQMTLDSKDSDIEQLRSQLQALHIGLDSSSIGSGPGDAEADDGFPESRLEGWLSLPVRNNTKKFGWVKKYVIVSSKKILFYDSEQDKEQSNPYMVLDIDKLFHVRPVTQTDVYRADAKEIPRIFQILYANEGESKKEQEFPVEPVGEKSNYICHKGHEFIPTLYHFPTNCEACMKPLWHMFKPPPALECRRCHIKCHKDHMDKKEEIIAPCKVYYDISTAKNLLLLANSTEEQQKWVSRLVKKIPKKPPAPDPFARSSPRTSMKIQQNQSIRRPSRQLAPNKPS

[10] = target: T3, Serine/threonine-protein kinase tousled-like 1 (Homo sapiens) (UniProt Q9UKI8); experiment: Inhibition of TLK1 (unknown origin) assessed as residual activity at 1000 nM by KINOMEscan analysis relative to control
T3 sequence (whole entry): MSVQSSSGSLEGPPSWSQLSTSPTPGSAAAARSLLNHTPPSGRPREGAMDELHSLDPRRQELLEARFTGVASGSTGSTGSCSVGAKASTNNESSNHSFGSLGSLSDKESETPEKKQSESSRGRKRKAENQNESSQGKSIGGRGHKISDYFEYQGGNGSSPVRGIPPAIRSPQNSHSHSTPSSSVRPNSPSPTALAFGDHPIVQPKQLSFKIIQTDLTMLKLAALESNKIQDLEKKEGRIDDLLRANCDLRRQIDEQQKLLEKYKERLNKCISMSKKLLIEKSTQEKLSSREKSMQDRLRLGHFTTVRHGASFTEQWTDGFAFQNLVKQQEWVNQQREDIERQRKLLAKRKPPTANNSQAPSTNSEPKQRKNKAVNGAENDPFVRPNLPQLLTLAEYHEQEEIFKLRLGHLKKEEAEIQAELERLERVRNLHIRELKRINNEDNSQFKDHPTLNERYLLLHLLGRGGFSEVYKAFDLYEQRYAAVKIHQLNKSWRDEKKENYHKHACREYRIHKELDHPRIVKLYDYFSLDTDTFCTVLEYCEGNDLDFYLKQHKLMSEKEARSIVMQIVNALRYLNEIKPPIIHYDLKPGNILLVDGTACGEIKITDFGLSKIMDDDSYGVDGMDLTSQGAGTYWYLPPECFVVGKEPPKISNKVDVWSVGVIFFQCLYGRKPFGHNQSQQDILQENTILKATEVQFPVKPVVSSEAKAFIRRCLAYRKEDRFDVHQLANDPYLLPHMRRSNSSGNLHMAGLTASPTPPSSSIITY

Row | SMILES | Activity [1] | Activity [2] | Activity [3] | Activity [4] | Activity [5] | Activity [6] | Activity [7] | Activity [8] | Activity [9] | Activity [10]
1 | COc1cc2nc(C)nc(N[C@H](C)c3cccc(-c4cn[nH]c4)c3)c2cc1OC | 99% | 99% | 100% | 93% | 98% | 87% | 94% | 85% | 72% | 78%
2 | COc1cc2ncnc(N[C@H](C)c3cccc4ccccc34)c2cc1OC | 99% | 100% | 100% | 85% | 100% | 81% | 100% | 93% | 91% | 100%
